Data reported in US20090281119A1, “ACID ADDITION SALTS OF N-ETHYI-N'-[2-METHOXY-4-(5-METHYI-4-PRYIMIDIN-2-YL)PHENYL]UREA AND USES THEREOF” (Cytopia Research Pty Ltd., priority 2005, published 2009).

Tests used:
[1] = physchem; assay type: physicochemical; details: 24 °C; water at 24±3° C.
Excerpt: (§1) Acid addition salts of the first aspect are well-suited to pharmaceutical formulation as either solution or solid dosage forms. […] It has been shown that these particular salts are also non-hygroscopic and this remains unchanged when stored in a humid environment. The lower hygroscopicity is a further advantage for processing and storing such acid addition salts.

[2] = hygroscopicity of the salts; assay type: physicochemical; details: crystal form / solid salt
Excerpt: as §1

[3] = test system: tubulin; experiment: inhibition of tubulin polymerisation; assay type: biochemical; details: read-out: inhibits tubulin polymerisation, IC50
Excerpt: One pharmacologically important mechanism of inhibiting cellular proliferation is by means of binding tubulin. Tubulin is an asymmetric dimer composed of alpha and beta subunits, that polymerizes to form structural components of the cytoskeleton called microtubules. Microtubules must be highly dynamic in order to carry out many of their functions. At certain stages of the cell cycle, or in particular cell types or organelles, stable microtubules are required, such as for transport within axons or for ciliary and flagellar movement. Micro-tubules assemble during the G2 phase of the cell cycle, and participate in the formation of the mitotic spindle which facilitates the segregation of sister chromatids during the process of cell division. The essential role of microtubules in cell division and the ability of drugs that interact with tubulin to interfere with the cell cycle have made tubulin a successful target for applications that include anti-cancer drugs, fungicides, and herbicides.
The compound of formula I, and by analogy its acid addition salts, inhibits tubulin polymerisation with an IC50 of 3 μM. […] The inhibition of tubulin polymerisation makes a compound of formula I suitable for the treatment of cancer, viral and bacterial infections, vascular restenosis, inflammatory diseases, autoimmune diseases, and psoriasis.

[4] = test system: in vivo tumour models; experiment: vascular targeting activity in in vivo tumour models

In the case of `CCC[C@H](Nc1nc(-c2ccc(NC(=O)NCC)c(OC)c2)ncc1C)c1cccnc1.O=C(O)CC(O)(CC(=O)O)C(=O)O` [citrate salt, N-ethyl-N′-[2-methoxy-4-(5-methyl-4-{[(1S)-1-pyridin-3-ylbutyl]amino}pyrimidin-2-yl)phenyl]urea citrate salt], the solubility [1] is reported as greater than 2100 µg/mL and the hygroscopicity [2] is reported as “not hygroscopic”.
For `CCC[C@H](Nc1nc(-c2ccc(NC(=O)NCC)c(OC)c2)ncc1C)c1cccnc1` [compound of formula I, N-ethyl-N′-[2-methoxy-4-(5-methyl-4-{[(1S)-1-pyridin-3-ylbutyl]amino}pyrimidin-2-yl)phenyl]urea], the IC50 [3] was 3 µM and the vascular targeting activity [4] was “displays vascular targeting activity”.
In the case of `CCC[C@H](Nc1nc(-c2ccc(NC(=O)NCC)c(OC)c2)ncc1C)c1cccnc1.CS(=O)(=O)O.CS(=O)(=O)O` [di-methanesulfonate salt, N-ethyl-N′-[2-methoxy-4-(5-methyl-4-{[(1S)-1-pyridin-3-ylbutyl]amino}pyrimidin-2-yl)phenyl]urea di-methanesulfonate salt], the solubility [1] is reported as greater than 2100 µg/mL and the hygroscopicity [2] is reported as “not hygroscopic”.
With `CCC[C@H](Nc1nc(-c2ccc(NC(=O)NCC)c(OC)c2)ncc1C)c1cccnc1.Cl.Cl` [dihydrochloride salt, N-ethyl-N′-[2-methoxy-4-(5-methyl-4-{[(1S)-1-pyridin-3-ylbutyl]amino}pyrimidin-2-yl)phenyl]urea dihydrochloride salt] the solubility [1] was greater than 2100 µg/mL and the hygroscopicity [2] was “not hygroscopic”.
With `CCC[C@H](Nc1nc(-c2ccc(NC(=O)NCC)c(OC)c2)ncc1C)c1cccnc1.O=C(O)C(=O)O` [mono-oxalate salt, N-ethyl-N′-[2-methoxy-4-(5-methyl-4-{[(1S)-1-pyridin-3-ylbutyl]amino}pyrimidin-2-yl)phenyl]urea mono-oxalate salt] the solubility [1] was greater than 2100 µg/mL and the hygroscopicity [2] was “not hygroscopic”.
In the case of `CCC[C@H](Nc1nc(-c2ccc(NC(=O)NCC)c(OC)c2)ncc1C)c1cccnc1.O=C(O)C(O)C(O)C(=O)O` [tartrate salt, N-ethyl-N′-[2-methoxy-4-(5-methyl-4-{[(1S)-1-pyridin-3-ylbutyl]amino}pyrimidin-2-yl)phenyl]urea tartrate salt], the solubility [1] is reported as greater than 2100 µg/mL and the hygroscopicity [2] is reported as “not hygroscopic”.
